Where “and” joins values, the source holds several entries; their conditions need not be identical. Equal values may be shown once. One block for each compound: values may come before it.
Assays:
[1] = Plasma protein binding, human; type: in vitro ADME; details: equilibrium dialysis, 37 °C
Procedure: Assessment of plasma protein binding was measured by equilibrium dialysis by incubating plasma
based determination of final compound concentrations. […]

EGFR-wt [2] = target: T1, EGFR-wt (Homo sapiens, UniProt P00533); assay: Kinetic characterization (Ki, kinact), EGFR-wt
T1 sequence (P00533 25-1210): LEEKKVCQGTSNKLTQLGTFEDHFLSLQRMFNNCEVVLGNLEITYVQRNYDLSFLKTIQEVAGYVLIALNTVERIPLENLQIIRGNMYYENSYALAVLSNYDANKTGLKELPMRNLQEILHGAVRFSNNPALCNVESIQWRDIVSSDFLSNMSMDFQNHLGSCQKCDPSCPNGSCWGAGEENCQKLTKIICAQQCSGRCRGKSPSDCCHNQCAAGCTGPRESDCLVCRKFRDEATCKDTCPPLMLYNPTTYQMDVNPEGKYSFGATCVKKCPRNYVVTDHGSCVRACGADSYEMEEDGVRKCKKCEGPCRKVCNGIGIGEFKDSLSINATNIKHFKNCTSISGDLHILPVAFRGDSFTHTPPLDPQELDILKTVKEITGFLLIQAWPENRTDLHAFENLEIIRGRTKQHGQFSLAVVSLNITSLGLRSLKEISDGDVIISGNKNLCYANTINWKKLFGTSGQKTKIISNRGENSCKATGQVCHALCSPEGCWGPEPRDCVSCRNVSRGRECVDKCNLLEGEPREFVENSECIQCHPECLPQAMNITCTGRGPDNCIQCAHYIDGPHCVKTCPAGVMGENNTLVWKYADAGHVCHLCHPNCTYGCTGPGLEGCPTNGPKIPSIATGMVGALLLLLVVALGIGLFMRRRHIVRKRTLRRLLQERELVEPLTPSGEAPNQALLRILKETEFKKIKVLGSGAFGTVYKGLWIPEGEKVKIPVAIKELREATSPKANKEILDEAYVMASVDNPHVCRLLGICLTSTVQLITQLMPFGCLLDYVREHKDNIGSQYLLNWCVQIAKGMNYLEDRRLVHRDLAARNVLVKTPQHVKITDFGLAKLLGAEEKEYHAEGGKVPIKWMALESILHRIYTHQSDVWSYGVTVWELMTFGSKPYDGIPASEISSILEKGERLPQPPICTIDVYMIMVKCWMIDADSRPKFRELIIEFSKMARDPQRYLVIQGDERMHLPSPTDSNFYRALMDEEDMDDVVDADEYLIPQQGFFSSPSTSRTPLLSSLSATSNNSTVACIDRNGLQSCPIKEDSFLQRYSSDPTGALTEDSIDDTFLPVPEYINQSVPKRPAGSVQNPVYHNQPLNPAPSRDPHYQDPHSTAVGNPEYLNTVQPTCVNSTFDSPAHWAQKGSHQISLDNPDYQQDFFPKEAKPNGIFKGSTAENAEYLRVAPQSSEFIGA

[3] = In vivo pharmacokinetics in mice
Procedure: In vivo pharmacokinetics.
To determine the pharmacokinetics of 19h, totally 36 male RjOrl:SWISS (CD1) mice, age 8−10 weeks, body weight (bw) between 29 and 31 g, were purchased from Janvier, Saint-Berthevin Cedex, France. Mice were fed ad libitum with Allein-Futter für Ratten-/Mäusehaltung from Sniff Special Diets GmbH, Germany. They had free access to water and were kept in a 12 h day/night rhythm. All experiments were approved by the local authorities. Pharmacokinetics were studied for the oral (PO), intraperitoneal (IP), and intravenous (IV) route of administration. For the oral and […]
intraperitoneal routes, a stock solution of 2 mg/mL of 19h in a solution consisting of 10% of DMSO and to 90% of an aqueous solution of 30% 2-hydroxypropyl-β-cyclodextrin was prepared. To reach doses of 20 mg/kg bw, 300 μL were administered per 30 g of mouse bw. For the intravenous route of administration, a 2 mg/mL DMSO solution was prepared and 30 μL were applied to a 30 g mouse to reach a concentration of 2 mg/kg bw. Mice were sacrificed 5, 15, 45, and 135 min after administration of the test compound, and approximately 100 μL of blood was taken from the left heart chamber. Three mice were analyzed per time point and route of administration (PO, IP and IV), respectively. Immediately after sampling, blood was centrifuged at 16200g for 10 min at 4 °C and plasma was stored at -80 °C until LC/MS analysis of 19h. Prior to LC-MS/MS analysis, plasma proteins were precipitated with acetonitrile containing an internal standard, and samples were filtered. A calibration curve was obtained from spiked blank plasma samples. 19h was measured using a Shimadzu UPLC system connected to a QTrap 4000 hybrid triple quadrupole/linear ion trap mass spectrometer (AB Sciex). The regression equation of the calibration curve was used to calculate plasma concentrations. Pharmacokinetic parameters were calculated using the PKSolver software2.

Plasma stability, mouse = type: in vitro ADME; details: 5 µM, 1 h, 37 °C
Plasma stability, human = type: in vitro ADME; details: 5 µM, 1 h, 37 °C
YES1 = YES1 (Homo sapiens, UniProt P07947); assay: SelectScreen kinase profiling, YES1; type: biochemical; details: mean ± SD of one measurement in duplicates
YES1, sequence (P07947 whole entry): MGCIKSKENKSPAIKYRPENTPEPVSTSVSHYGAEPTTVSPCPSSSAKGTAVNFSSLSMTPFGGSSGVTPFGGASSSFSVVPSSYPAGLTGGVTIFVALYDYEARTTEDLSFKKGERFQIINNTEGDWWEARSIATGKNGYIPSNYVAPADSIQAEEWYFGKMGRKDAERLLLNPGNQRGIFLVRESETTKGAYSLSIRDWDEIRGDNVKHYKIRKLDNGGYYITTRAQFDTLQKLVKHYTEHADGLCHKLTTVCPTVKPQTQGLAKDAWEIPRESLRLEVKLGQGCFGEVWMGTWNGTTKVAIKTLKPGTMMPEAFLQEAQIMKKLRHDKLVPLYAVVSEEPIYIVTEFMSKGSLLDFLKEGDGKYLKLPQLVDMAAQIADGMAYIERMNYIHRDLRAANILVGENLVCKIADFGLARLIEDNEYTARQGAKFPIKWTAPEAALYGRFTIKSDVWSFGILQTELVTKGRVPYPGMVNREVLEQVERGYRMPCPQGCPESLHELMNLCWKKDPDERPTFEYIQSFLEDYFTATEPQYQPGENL
Procedure: (§1) Kinase profiling of compound 17a at a concentration of 1 µM generated with the SelectScreen® Profiling Service from Life Technologies.
(§2) Figure S2. Kinase profiling of compound 17a, Illustration as waterfall plot. 9 Kinases harboring a Cysteine isostructural to Cys797 in EGFR are highlighted
(§3) Kinase % inhibition Kinase % inhibition […]
(§4) aValues are the mean ± SD of one measurement in duplicates; bKinases harboring a Cysteine isostructural to Cys797 […]
(§5) (1 picture or pasted object on this page, not shown here)

JAK3 = JAK3 (Homo sapiens, UniProt P52333); assay: SelectScreen kinase profiling, JAK3; type: biochemical; details: mean ± SD of one measurement in duplicates
JAK3, sequence (P52333 whole entry): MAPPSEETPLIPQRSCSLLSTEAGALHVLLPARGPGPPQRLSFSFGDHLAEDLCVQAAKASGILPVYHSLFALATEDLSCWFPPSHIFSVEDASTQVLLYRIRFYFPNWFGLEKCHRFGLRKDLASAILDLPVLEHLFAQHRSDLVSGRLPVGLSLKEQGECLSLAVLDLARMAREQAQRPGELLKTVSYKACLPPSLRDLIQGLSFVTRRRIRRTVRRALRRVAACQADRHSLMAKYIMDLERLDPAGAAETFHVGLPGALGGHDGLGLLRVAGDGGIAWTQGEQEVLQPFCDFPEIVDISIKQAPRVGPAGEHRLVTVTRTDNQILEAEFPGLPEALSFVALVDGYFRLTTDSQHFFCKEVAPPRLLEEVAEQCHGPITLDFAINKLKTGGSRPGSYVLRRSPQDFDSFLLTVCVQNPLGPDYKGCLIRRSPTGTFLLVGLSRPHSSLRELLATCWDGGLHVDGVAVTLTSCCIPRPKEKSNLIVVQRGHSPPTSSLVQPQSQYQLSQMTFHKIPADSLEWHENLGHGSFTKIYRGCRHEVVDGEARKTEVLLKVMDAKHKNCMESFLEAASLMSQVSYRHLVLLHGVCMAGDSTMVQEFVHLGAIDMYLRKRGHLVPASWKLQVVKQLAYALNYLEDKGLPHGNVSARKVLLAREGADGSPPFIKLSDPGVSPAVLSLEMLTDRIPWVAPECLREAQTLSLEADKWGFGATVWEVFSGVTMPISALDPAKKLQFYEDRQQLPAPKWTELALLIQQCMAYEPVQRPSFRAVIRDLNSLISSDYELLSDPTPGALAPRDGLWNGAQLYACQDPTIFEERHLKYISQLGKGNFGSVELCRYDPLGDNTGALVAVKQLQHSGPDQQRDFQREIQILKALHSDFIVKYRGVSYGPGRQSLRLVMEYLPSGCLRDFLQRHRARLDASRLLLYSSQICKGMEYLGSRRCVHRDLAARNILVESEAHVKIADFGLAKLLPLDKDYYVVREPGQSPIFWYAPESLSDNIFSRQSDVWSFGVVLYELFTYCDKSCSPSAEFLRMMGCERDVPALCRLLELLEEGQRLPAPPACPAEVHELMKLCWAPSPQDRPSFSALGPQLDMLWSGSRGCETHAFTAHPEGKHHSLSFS
Procedure: as §1, §2, §3, §4, §5

ABL1-Y253F = ABL1-Y253F (Homo sapiens, UniProt P00519, Y253F); assay: SelectScreen kinase profiling, ABL1-Y253F; type: biochemical; details: mean ± SD of one measurement in duplicates
Procedure: as §1, §2, §3, §4, §5

FGFR2 = FGFR2 (Homo sapiens, UniProt P21802); assay: SelectScreen kinase profiling, FGFR2; type: biochemical; details: mean ± SD of one measurement in duplicates
FGFR2, sequence (P21802 22-821): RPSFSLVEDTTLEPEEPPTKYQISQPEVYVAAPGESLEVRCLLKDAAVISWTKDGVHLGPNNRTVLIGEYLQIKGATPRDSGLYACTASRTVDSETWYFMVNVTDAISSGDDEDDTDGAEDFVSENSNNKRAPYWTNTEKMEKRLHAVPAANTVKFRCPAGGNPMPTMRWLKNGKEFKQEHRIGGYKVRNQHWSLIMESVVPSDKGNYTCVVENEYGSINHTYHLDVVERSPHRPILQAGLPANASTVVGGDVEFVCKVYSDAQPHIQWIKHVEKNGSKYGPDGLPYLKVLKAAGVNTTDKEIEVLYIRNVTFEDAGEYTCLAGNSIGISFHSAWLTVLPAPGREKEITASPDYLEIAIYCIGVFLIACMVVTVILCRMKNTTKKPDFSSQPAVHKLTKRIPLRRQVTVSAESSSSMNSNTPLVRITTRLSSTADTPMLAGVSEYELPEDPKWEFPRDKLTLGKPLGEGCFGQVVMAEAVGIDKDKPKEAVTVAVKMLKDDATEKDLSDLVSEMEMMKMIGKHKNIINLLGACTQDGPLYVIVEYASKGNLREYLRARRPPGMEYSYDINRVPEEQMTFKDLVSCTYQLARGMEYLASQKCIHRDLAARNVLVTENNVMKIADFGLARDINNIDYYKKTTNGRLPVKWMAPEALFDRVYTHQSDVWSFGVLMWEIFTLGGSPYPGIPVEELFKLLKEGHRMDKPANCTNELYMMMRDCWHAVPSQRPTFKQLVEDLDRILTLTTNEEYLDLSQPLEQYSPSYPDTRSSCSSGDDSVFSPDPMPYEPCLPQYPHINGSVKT
Procedure: as §1, §2, §3, §4, §5

ABL1-G250E = ABL1-G250E (Homo sapiens, UniProt P00519, G250E); assay: SelectScreen kinase profiling, ABL1-G250E; type: biochemical; details: mean ± SD of one measurement in duplicates
Procedure: as §1, §2, §3, §4, §5

TXK = TXK (Homo sapiens, UniProt P42681); assay: SelectScreen kinase profiling, TXK; type: biochemical; details: mean ± SD of one measurement in duplicates
TXK, sequence (P42681 whole entry): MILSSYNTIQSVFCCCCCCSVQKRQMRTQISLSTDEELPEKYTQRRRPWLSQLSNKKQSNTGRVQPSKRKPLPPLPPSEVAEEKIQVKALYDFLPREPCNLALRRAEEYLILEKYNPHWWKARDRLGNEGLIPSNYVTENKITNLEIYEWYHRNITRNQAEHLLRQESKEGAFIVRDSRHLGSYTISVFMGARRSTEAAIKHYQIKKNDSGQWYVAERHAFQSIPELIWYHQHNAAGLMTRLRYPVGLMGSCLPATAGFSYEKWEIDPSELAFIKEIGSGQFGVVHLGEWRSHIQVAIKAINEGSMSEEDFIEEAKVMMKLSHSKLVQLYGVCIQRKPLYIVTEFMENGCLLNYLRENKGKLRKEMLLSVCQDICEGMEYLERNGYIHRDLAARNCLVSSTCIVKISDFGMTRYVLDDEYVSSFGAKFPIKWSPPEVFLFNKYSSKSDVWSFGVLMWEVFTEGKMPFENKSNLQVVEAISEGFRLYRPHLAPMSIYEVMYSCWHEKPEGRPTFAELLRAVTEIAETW
Procedure: as §1, §2, §3, §4, §5

ABL1-E255K = ABL1-E255K (Homo sapiens, UniProt P00519, E255K); assay: SelectScreen kinase profiling, ABL1-E255K; type: biochemical; details: mean ± SD of one measurement in duplicates
Procedure: as §1, §2, §3, §4, §5

ABL1-wt = ABL1-wt (Homo sapiens, UniProt P00519); assay: SelectScreen kinase profiling, ABL1-wt; type: biochemical; details: mean ± SD of one measurement in duplicates
Procedure: as §1, §2, §3, §4, §5

EGFR-wt [4] = target: T1, EGFR-wt; assay: SelectScreen kinase profiling, EGFR-wt; type: biochemical; details: mean ± SD of one measurement in duplicates
Procedure: as §1, §2, §3, §4, §5

ABL2 = ABL2 (Homo sapiens, UniProt P42684); assay: SelectScreen kinase profiling, ABL2; type: biochemical; details: mean ± SD of one measurement in duplicates
Procedure: as §1, §2, §3, §4, §5

100 kinases = assay: Kinase selectivity profiling with 100 kinases (SelectScreen); type: biochemical; details: screening concentration 1 μM
Procedure: as §1, §2, §3, §4, §5

[5] = male, RjOrl:SWISS (CD1), mouse, plasma, IP 20 mg kg-1
[6] = male, RjOrl:SWISS (CD1), mouse, plasma, IP 20 mg kg^–1
[7] = male, RjOrl:SWISS (CD1), mouse, plasma, IV 2 mg kg-1
[8] = male, RjOrl:SWISS (CD1), mouse, plasma, PO 20 mg kg-1

- fraction unbound at 6 h, 5 µM [1]: 0.001
- Ki (EGFR-wt [2]): 0.4 ± 0.1 nM
- kinact (EGFR-wt [2]): 0.000833 s⁻¹
- kinact/KI (EGFR-wt [2]): 1.98e+06 ± 220000 M⁻¹ s⁻¹
- F0-t ([3]; IP 20 mg kg-1): 258%
- t1/2 ([3]; IP 20 mg kg-1): 1.2 h
- Cmax, free ([3]; IP 20 mg kg^–1): 0.012 µM
- F0-t ([3]; PO 20 mg kg-1): 9%
- time blood plasma concentration maintained above in vitro EC50 in H1975 cells ([3]; after both IP and PO): more than two hours
- AUC(0-t) [3, 5]: 2870 ng·h/mL
- Cmax [3, 5]: 1770 ng/mL
- AUC [3, 6]: 8.6 ng·h/mL
- Cmax [3, 6]: 3.5 µM
- AUC(0-t) [3, 7]: 111 ng·h/mL
- C0 [3, 7]: 258 ng/mL
- clearance [3, 7]: 250 mL/min/kg
- Vd ([3]; male, RjOrl:SWISS (CD1), mouse, plasma, IV 2 mg kg-1, read-out: Vss): 16 L/kg
- AUC(0-t) [3, 8]: 101 ng·h/mL
- Cmax [3, 8]: 56 ng/mL
- half-life ([3]; male, RjOrl:SWISS (CD1), mouse, plasma, ip, 20 mg/kg, IP 20 mg kg-1): 1.21 h
- half-life ([3]; male, RjOrl:SWISS (CD1), mouse, plasma, iv, 2 mg/kg, IV 2 mg kg-1): 0.89 h
- Plasma stability (Plasma stability, mouse): 100 %remain
- Plasma stability (Plasma stability, human): 99 %remain and 100 %remain
Compound: C=CC(=O)Nc1cccc(-c2c(-c3ccc(N4CCN(C)CC4)cc3)[nH]c3ncnc(OCC(C)C)c23)c1 [Compound 19h]

- inhibition at 1 µM (YES1): 93 ± 1%
- inhibition at 1 µM (JAK3): 91 ± 2%
- inhibition at 1 µM (ABL1-Y253F): 94%
- inhibition at 1 µM (FGFR2): 76 ± 1%
- inhibition at 1 µM (ABL1-G250E): 96%
- inhibition at 1 µM (TXK): 77%
- inhibition at 1 µM (ABL1-E255K): 86%
- inhibition at 1 µM (ABL1-wt): 89%
- inhibition at 1 µM (EGFR-wt [4]): 97 ± 2%
- inhibition at 1 µM (ABL2): 86%
- kinases with inhibitory activity of ≥70% (100 kinases): 21 kinases and 8 mutant variants
Compound: C=CC(=O)Nc1cccc(-c2c(-c3ccc(CN4CCN(C)CC4)cc3)[nH]c3ncnc(OC)c23)c1 [Compound 17a]
